Experimental data taken from patent US9546367B2, “siRNA compositions and methods for inhibiting gene expression in tumor initiating cells of breast cancer” (priority 2011, dated 2017).

What was measured:
MDAMB231 = experiment: in vitro MSFE with packaged siRNA; type: cell-based, human; conditions: Day 8, p<0.05
Text: FIG. 7A, FIG. 7B, and FIG. 7C show confirmation of BCSC target genes and comparison of changes in mammosphere formation efficiency. […] Data analyzed by one-way ANOVA and plotted as mean±SEM for n=6 replicates; *p<0.05;
The siRNA sequences of two candidate genes RPL39 and MLF2 were packaged in nanoliposomes and the effects on MSFE determined in vitro, as described above, using packaged siRNA instead of lentiviral shRNA.

SUM159 xenografts = experiment: short-term in vivo siRNA (multistage particle) treatment, SUM159 xenograft; set-up: species or system SCID-Beige mice; conditions: for tumor volume: SUM159; for secondary MSFE: SUM159 xenograft cells, tumors collected after two weeks; for Aldefluor levels: SUM159 xenografts, reduction not statistically significant
Description: FIG. 9A, FIG. 9B, FIG. 9C, and FIG. 9D show short-term, in vivo treatment in siRNA SUM159 xenografts. Triple-negative breast cancer cell line SUM159 was injected into the mammary fat pad of SCID beige mice (n=9). These tumors were randomized into six groups: 1) vehicle+scrambled siRNA (15 μg, i.v.); 2) vehicle+RPL39 siRNA 15 μg (i.v.); 3) vehicle+MLF2 siRNA (15 μg (i.v.); 4) docetaxel (20 mg/kg, i.p.)+scrambled siRNA 15 μg (i.v.): 5) docetaxel (20 mg/kg, i.p.)+RPL39 siRNA 15 ltg (i.v.), and 6) docetaxel (20 mg/kg, i.p.)+MLF2 siRNA 15 μg (i.v.). […] Data were analyzed by one-way ANOVA, and plotted as mean±SEM for n=9 replicates; *p<0.05;
(§1) The effect of MLF2 and RPL39 using siRNA packaged in multistage nanoparticles in two different triple negative models were studied. SUM159 and a patient-derived human cancer xenograft (BCM2665) from a primary human breast cancer transplanted in SCID-Beige mice, the test group had 54 mice per xenograft line, and 9 mice per treatment arm. When tumor sizes reached 150 to 300 mm^3, mice were divided into six groups: (1) vehicle-treated, (2) chemotherapy on day 0 with one dose of docetaxel 20 mg/kg by intraperitoneal (i.p.) injection. (3) siRNA against MLF2 packaged in nanoparticles (single injection intravenous (i.v.) on Day 1), (4) combination treatment with docetaxel (20 mg/kg i.p. on Day 1) and siRNA against MLF2 (single injection i.v. on Day 1), (5) siRNA against RPL39 packaged in nanoparticles (single injection i.v. on Day 1), and (6) combination treatment with docetaxel (20 mg/kg i.p. on Day 1) and siRNA against inhibitor […] (single injection iv. on Day 1). The same dose (15 μg siRNA) was used in all experiments. Animals were sacrificed on Day 14. The tumors were harvested and analyzed for downstream effects on BCSC self-renewal using FACS analysis, and MSFE.
(§2) The fraction of BCSCs in the xenograft tumors from the six treatment groups were processed by mincing and digesting the tumors using collagenase type III, for 3 hrs at 37° C. in order to dissociate the tumors into single cells. Changes in CD44+/CD24/Lin− and Aldefluor® were analyzed as described previously (Li et al., 2008). Briefly, cells were stained with primary antibodies antiCD44 labeled APC (dilution 1:10. BD Biosciences), anti-CD24-labeled FITC (dilution 1:10, BD Biosciences), and additionally with H2KD-labeled PE to eliminate all mouse, lineage-positive cells. The cells were incubated in HBSS (Hanks Balanced Salt Solution, GIBCO) for 15 min on ice with 2% FBS for the antibodies and 45 min for Aldefluor® reagent. Following incubation, cells were washed once with HBSS and re-suspended in HBSS supplemented with 2% FBS. […] (PI) was added to the cells for live/dead gating prior to FACS analysis.
(§3) Mammosphere formation efficiency, the in vitro assay for stem cell self-renewal, was performed as described previously (Dontu et al., 2003; Dontu et al., 2005; Li et al., 2008). Single cells were plated in ultra-low attachment plates (Corning, Acton, Mass., USA) at the density 40,000 viable cells/mL for BCM2665 in primary culture, and at the density 10,000 viable cells/mL in secondary culture. For mammosphere culture, cells were grown in serum-free mammary epithelial basal medium (MEGM) (Lonza, Inc.) supplemented with B27 (Invitrogen), 20 ng/mL EGF (BD Biosciences), and 1% heparin (Sigma Chemical Co.) in a humidified incubator ([…]: 95% air, 37° C. for 14 days, as previously described (Li et al., 2008).

BCM2665 xenografts = experiment: short-term in vivo siRNA (multistage particle) treatment, BCM2665 patient-derived xenograft; set-up: species or system SCID-Beige mice; conditions: for tumor volume: BCM2665; for secondary MSFE: BCM2665 xenograft cells, tumors collected after two weeks; for Aldefluor levels: BCM2665 xenografts, reduction not statistically significant
Description: FIG. 10A, FIG. 10B, FIG. 10C, and FIG. 10D illustrate the short-term, in vivo treatment of siRNA in triple-negative, patient-derived human cancer in a murine model xenograft, BCM2665. BCM2665 cells were transplanted into cleared mammary fat pad of SCID beige mice (n=9). These tumors were randomized into the same six groups as stated in the preceding figure, and treated in a manner identical to the SUM159 xenografts. […] RPL39 and MLF2 siRNA respectively. […] Data were analyzed by one-way ANOVA, and are plotted as mean±SEM for n=9 replicates; *p<0.05;
as §1, §2, §3

MDAMB231 lung metastasis = experiment: in vivo lung metastasis of luciferase-tagged MDAMB231, IVIS imaging; set-up: species or system SCID-beige mice; conditions: siRNA in cationic liposomes twice weekly; for lung metastasis (animals with metastasis / animals), IVIS imaging: week six; for luminescence (luciferase analysis): p<0.05
Description: 3 million cells MDAMB231 cancer cells, stably transfected with luciferase, were injected in the mammary fat pad of SCID-beige mice and were randomized into 3 groups: (1) vehicle+scrambled siRNA, (2) vehicle+MLF2 siRNA, and (3) vehicle+RPL39 siRNA, and treated with siRNA packaged liposomes twice weekly for 6 weeks. The mice were injected with D-luciferin every week for 6 weeks to determine lung metastases using IVIS imaging (Perkin Elmer). The primary tumors were removed by week 5 to continue this study without increasing the primary tumor burden to 10% of body weight.
To assess the effects of RPL39 and MLF2 siRNA on lung metastasis, SCID-Beige mice were injected with luciferase-tagged MDAMB231 cells and treated with siRNA against RPL39 or MLF2 packaged in cationic liposomes, twice weekly simultaneously, and then sacrificed at week six.

[1] = siRNA alone (15 μg i.v., MSV) vs vehicle
[2] = siRNA+chemotherapy vs standard-dose docetaxel (20 mg/kg)

Substance	secondary MSFE (MDAMB231)	tumor volume (SUM159 xenografts; [1])	tumor volume (SUM159 xenografts; [2])	secondary MSFE (SUM159 xenografts)	Aldefluor levels (SUM159 xenografts)	tumor volume (BCM2665 xenografts; [1])	tumor volume (BCM2665 xenografts; [2])	secondary MSFE (BCM2665 xenografts)	Aldefluor levels (BCM2665 xenografts)	lung metastasis (animals with metastasis / animals), IVIS imaging (MDAMB231 lung metastasis)	luminescence (luciferase analysis) (MDAMB231 lung metastasis)
MLF2 siRNA: siRNA against myeloid leukemia factor 2; sense SEQ ID NO: 3 CCCTGATGGATCCCTTTGCTAT, antisense SEQ ID NO: 19 ATAGCAAAGGGATCCATCAGGA (packaged in nanoliposomes, chemistry not given here, further chemistry not given here)	significantly reduced	Significant reduction	Similarly, observations were obtained	Significant decrease	reduction	Significant reduction	Similarly, observations were obtained	Significant decrease	reduction	8/12	significant reduction
RPL39 siRNA: siRNA against ribosomal protein L39-like; sense SEQ ID NO: 15 ACGATTCCTGGCCAAGAAACAA, antisense SEQ ID NO: 31 TTGTTTCTTGGCCAGGAATCGC (listed as DNA, chemistry not fully specified)	significantly reduced	Significant reduction	Similarly, observations were obtained	Significant decrease	reduction	Significant reduction	Similarly, observations were obtained	Significant decrease	reduction	5/11	significant reduction
